Test results as given in patent US20060106099A1, “Novel inhibitors of ubiquitin isopeptidases” (priority 2002, published 2006).

What was measured:
ubiquitin isopeptidases [1] = assay: Ubiquitin isopeptidase activity, Ub-PEST substrate, lysates of treated RKO and HCT 116 cells; type: cell-based, human; settings: cells treated 6, 20 or 60 μM, 12 h
Experimental: A) Inhibition of isopeptidase proteolysis of Ub-PEST substrate. RKO and HCT 116 cells were treated with DMSO vehicle, 6, 20, or 60 μM of Δ12-PGJ2, DBA, NSC-302979, or curcumin, 60 μM PGB1, 60 μM NSC-156236, or 60 μM DPTP for 12 h, 37° C. Cell lysates from each treatment were incubated with Ub-PEST, as described in materials and methods. Samples were fractionated by SDS-PAGE and proteins detected with ubiquitin epitopes immunochemically (HCT 116 ^+/+ western blot shown as example of raw data). […] B) Inhibition of isopeptidase activity by test panel compounds. Isopeptidase activity was determined by measuring via densitometry, the amount of Ub generated by isopeptidase cleavage of Ub-PEST. Bar graph patterns are DMSO vehicle (black), Δ12-PGJ2 (hatched), DBA (horizontal lines), NSC-302979 (white), PGB1 (diagonally downward right lines), and NSC-156236 (diagonally downward left lines). The amount of Ub generated in the vehicle treated sample (panel A, lane 2) is arbitrarily designated 100%.
Cellular isopeptidase enzymatic activity was measured with two assays that used different substrates. In one assay ubiquitin-PEST (Ub-PEST) was used, a full-length ubiquitin molecule with an 18 amino acid c-terminal peptide extension (total mass=10.5 kDa). Ubiquitin isopeptidases specifically cleave the 18 amino acid peptide extension, releasing full-length ubiquitin (8.5 kDa).
Briefly, 6×10^5 cells were incubated with 0-60 μM of test compounds for 12 hrs. Cells were lysed in 50 μL of 25 mM HEPES, 5 mM EDTA, 0.1% CHAPS, 5 mM ATP, pH 7.5. The protein concentration of each sample was adjusted to 0.3 mg/mL and incubated with 50 μg/mL Ub-PEST for 45 minutes at 25° C. Under these conditions, Ub-PEST hydrolysis occurs at a linear rate. 20 μL samples were mixed with 20 μL 2× Laemmli buffer, boiled briefly, and fractionated by SDSPAGE. Isopeptidase activity was monitored by determining the amount of product (8.5 kDa ubiquitin) formation.

ubiquitin isopeptidases [2] = assay: Ubiquitin isopeptidase activity, z-LRGG-AMC substrate, lysates of treated RKO and HCT 116 cells; type: cell-based, human; settings: cells treated 6, 20 or 60 μM, 12 h
Experimental: RKO (upper) and HCT 116 ^+/+ cells (lower) were treated with DMSO vehicle, 6, 20, or 60 μM of Δ12-PGJ2, DBA, NSC-302979, or curcumin, 60 μM PGB1, 60 μM NSC-156236, or 60 μM DPTP for 12 h at 37° C. Cell lysates (0.5 mg/mL) from each treatment were incubated with the isopeptidase substrate, z-LRGG-AMC, for 3 h, 37° C. The amount of AMC cleaved by isopeptidase was determined fluorometrically, as described in Materials and Methods.
The second assay used a fluorescent tetrapeptide, z-LRGG-AMC, as a substrate that mimics the carboxy-terminus of ubiquitin. Isopeptidase activity hydrolyzes the bond between the c-terminal glycine and the fluorophore. This tetrapeptide also undergoes slow proteolysis by the catalytic subunit of the proteasome. To minimize this background rate of proteolysis cell lysates were incubated with 30 μM MG115 for 30 minutes at 4° C., prior to substrate incubation (>90% proteasome inhibition). Cells were teeated as above, lysed in 250 μL of lysis buffer per sample, and adjusted protein concentration to 0.5 mg/mL prior to incubation with MG115. Next, z-LRGG-AMC substrate was added and fluorescence was quantified of the AMC moiety cleaved by isopeptidase action.

[3] = system: polyubiquitin conjugates in RKO-E6 cells; assay: Accumulation of polyubiquitin in RKO-E6 cells (immunoblot); type: cell-based, human; settings: EC80 or 60 μM, 6-24 h
Experimental: (§1) A) Accumulation of polyubiquitin. RKO-E6 cells were treated with DMSO vehicle for 24 h, 37° C., or with the concentrations of test compounds that gave 80% cell death (as determined by cell viability assay at 48 h) for 6, 12, or 24 h, 37° C. […] Schematic depicting p53 degradation via the proteasome pathway in RKO cells versus RKO-E6 cells. The activity of the HPV E6 oncoprotein hastens p53 degradation in RKO-E6 cells. ii. RKO and RKO-E6 cells were treated with vehicle, etoposide (50 μM), MG115 (20 μM), Δ12-PGJ2 (60 μM), NSC-302979 (20 μM, DBA (20 μM), curcumin (60 μM), PGB1 (60 μM), NSC-156236, (60 XM)or DPTP 60 μM for 6 h, 37° C. Lysates were fractionated by SDS-PAGE and their p53 content determined immunochemically. iii. p53 levels were measured by densitometry and the ratio of p53 protein in RKO-E6 cells/RKO cells calculated.
(§2) The medium was removed and cells lysed in 50 mM Tris, pH 7.4, 100 mM NaCl, 2 mM EDTA with 0.1% SDS, 0.1% deoxycholate, 1× complete protease inhibitor mixture. Protein concentration was measured by the Bradford method. Equal portions of the total cell lysate were fractionated from each sample (12.5 μg of protein) by SDS-PAGE. Proteins were transferred to poly(vinylidene difluoride) blocked with 5% (w/v) nonfat dry milk in Trisbuffered saline [20 mM Tris-HCl, pH 7.5, 100 mM sodium chloride, 0.1% (v/v) Tween 20]. Proteins were detected immunochemically by using primary antibodies directed against p53 (1:4000) or ubiquitin (1:1000), followed by horseradish peroxidase-conjugated secondary antibodies (1:4000). Antigen-antibody complexes were detected with enhanced chemiluminescence reagents. Gels were scanned and quantified intensities using Kodak 1D Image Analysis Software.

p53 = p53 accumulation, ratio RKO-E6 cells/RKO cells (immunoblot, densitometry); type: cell-based, human; settings: 6 h; etoposide 50 μM, MG115, NSC-302979, DBA 20 μM, others 60 μM
Experimental: as §1, §2

RKO cells = assay: MTT cell viability assay, RKO cells; settings: 48 h; for cell death in RKO compared with RKO-E6 cells: MTT, isogenic pair; for EC50: Homo sapiens, RKO, read-out: Cytotoxic Potency (EC50) RKO
RKO-E6 cells = assay: MTT cell viability assay, RKO-E6 cells; settings: for EC50: Homo sapiens, RKOE6, 48 h, read-out: Cytotoxic Potency (EC50) RKO-E6
Experimental: (§5) Cell viability was measured with MTT reagent as described in materials and methods.
(§6) Cell viability was detected by the MTT assay. Briefly, 1×10^5 cells were incubated per well of a sterile, 96-well assay plate with 0-60 μM of test compounds for 48 hours. MTT reagent was added to each well, final concentration of 0.5 mg/mL, and incubated for an additional 3 hours. The media was aspirated and remaining MTT reagent from each well and added 100 μL of HCl:isopropanol (1:24). The absorbance of each sample was measured at 405 nm.

HCT 116 +/+ cells = assay: MTT cell viability assay, HCT 116 p53 +/+ cells; settings: for cell death in HCT 116 +/+ compared with HCT 116 −/− cells: 48 h, MTT, isogenic pair; for EC50: Homo sapiens, HCT-116, 48 h, read-out: Cytotoxic Potency (EC50) HCT +/+
Experimental: as §5, §6

HCT 116 −/− cells = assay: MTT cell viability assay, HCT 116 p53 −/− cells; settings: Homo sapiens, HCT-116, 48 h, read-out: Cytotoxic Potency (EC50) HCT −/−
HCT 116 (p53 wt) = assay: MTS cytotoxicity, HCT 116 (p53 wt); type: cell-based; settings: Homo sapiens, log of EC50 in μM, 48 h, read-out: Log EC50 +/− Standard Error of Log EC50, HCT 116 (p53 wt) (converted)
Source text: (§3) Cytotoxicity in Human Colon Tumor (HCT) Cell Lines. To determine if punaglandins elicit cytotoxicity independently of the tumor-suppressor p53, as do other dienone prostaglandins, several cytotoxicity assays were employed. First, cell death effects of all isolated punaglandins were investigated in pairs of isogenic colon cancer cell lines, the HCT 116^+/+ competent cell line and HCT 116^−/− null cell lines. HCT 116^+/+ cells are homozygous for p53^+/+ and p21^+/+; where as, HCT 116^−/− cells lack both alleles for p53 (p53^−/−) or p21 (p21^−/−).
(§4) Each cell line was seeded simultaneously in 96-well plates and incubated for 24 h before treatment with individual punaglandins at various concentrations for 48 additional h. Cytotoxicity was determined using MTS and absorbances were recorded at 490 nm. Half maximal effective concentrations (EC50) and Log EC50s were calculated from a concentration-response curve generated using GraphPad Prism (Table 1).

HCT 116 (p53^−/−) = assay: MTS cytotoxicity, HCT 116 (p53−/−); type: cell-based; settings: Homo sapiens, log of EC50 in μM, 48 h, read-out: Log EC50 +/− Standard Error of Log EC50, HCT 116 (p53−/−) (converted)
Source text: as §3, §4

HCT 116 (p21 wt) = assay: MTS cytotoxicity, HCT 116 (p21 wt); type: cell-based; settings: Homo sapiens, log of EC50 in μM, 48 h, read-out: Log EC50 +/− Standard Error of Log EC50, HCT 116 (p21 wt) (converted)
Source text: as §3, §4

HCT 116 (p21^−/−) = assay: MTS cytotoxicity, HCT 116 (p21−/−); type: cell-based; settings: Homo sapiens, log of EC50 in μM, 48 h, read-out: Log EC50 +/− Standard Error of Log EC50, HCT 116 (p21−/−) (converted)
Source text: as §3, §4

ubiquitin isopeptidases [4] = assay: In vivo isopeptidase activity after treatment of RKO cells, Ub-PEST; type: cell-based, human; settings: 6 h
Experimental: Isopeptidase Assay. It was hypothesized that the punaglandins would inhibit ubiquitin-isopeptidase activity of the proteasome pathway as does the prostaglandin, Δ^12-PGJ2 (1), but with greater potency because of the chlorinated C-10. To validate this theory, cellular isopeptidase enzymatic activity was measured in vitro after treatment with individual punaglandins, PNG 2 (6), PNG 3 (7), and Z-PNG 4 (9) and in vivo after individual treatment with PNG 4 (8) and PNG 6 (10). This activity was determined utilizing the simple isopeptidase substrate, ubiquitin-PEST (Ub-PEST), a full/length ubiquitin (Ub) molecule fused with an 18-amino acid C-terminal peptide extension that most isopeptidases use as a substrate. The polypeptide extension contains regions rich in Pro (P), Glu (E), Ser (S), and Thr (T) residues called PEST motifs that are responsible for rapid degradation of these and other unstable proteins. Ub isopeptidases specifically cleave this peptide extension, yielding free, full-length Ub. Both the fused Ub-PEST (10.5 kDa) and the cleaved, free Ub (8.5 kDa) can be observed via immunochemical detection.
In vivo Isopeptidase Activity. To investigate whether punaglandins can inhibit isopeptidase activity in vivo, isopeptidase activity was analyzed after punaglandin treatment of RKO cells. PNG 4 (8) and PNG 6 (10) were selected for in vivo investigation because they differ only in enone functionality, where (8) is a dienone and (10) an enone. RKO cells were incubated with 1 μM, 4 μM, or 7 μM of PNG 4 (8) and PNG 6 (10). […] As a positive control, cells were treated with a known isopeptidase inhibitor, shikoccin (SK). After 6 h drug treatment, cells were lysed and protein concentration adjusted to 0.3 mg/mL per sample. Each sample was subsequently incubated with 50 μg/mL of Ub-PEST. The reaction was terminated after 20 min and the respective amounts of Ub-PEST (10 kDa) and free Ub product (8.5 kDa) were determined by SDS-PAGE fractionation.

SMILES | inhibition of isopeptidase cleavage of Ub-PEST (ubiquitin isopeptidases [1]) | inhibition of z-LRGG-AMC hydrolysis by ubiquitin isopeptidases (ubiquitin isopeptidases [2]) | cellular accumulation of polyubiquitin conjugates [3] | ratio of p53 protein [RKO-E6 cells/RKO cells] (p53) | cell death in RKO compared with RKO-E6 cells (RKO cells) | EC50 (RKO cells) [µM] | EC50 (RKO-E6 cells) [µM] | EC80, concentration that gave 80% cell death (RKO-E6 cells; cell viability assay at 48 h, RKO-E6 cells) [µM] | cell death in HCT 116 +/+ compared with HCT 116 −/− cells (HCT 116 +/+ cells) | EC50 (HCT 116 +/+ cells) [µM] | EC50 (HCT 116 −/− cells) [µM] | EC50 (HCT 116 (p53 wt)) [µM] | EC50 (HCT 116 (p53^−/−)) [µM] | EC50 (HCT 116 (p21 wt)) [µM] | EC50 (HCT 116 (p21^−/−)) [µM] | effect on Ub-PEST degradation, control substances (ubiquitin isopeptidases [4])
O=C(C=Cc1ccccc1)C=Cc1ccccc1 [DBA, dibenzylideneacetone] | inhibited isopeptidase activity in a concentration dependent manner | inhibited ubiquitin isopeptidase activity | protein species with polyubiquitin conjugation accumulated in cells | approached unity | caused cell death with equal potency and efficacy | 7 ± 0.6 | 6.5 ± 1.1 | 12.0 | caused cell death with equal potency | 3.2 ± 0.1 | 3.8 ± 0.1 | – | – | – | – | –
O=c1cc(-c2ccccc2)sc(-c2ccccc2)c1 [DPTP, 2,6-Diphenyl-4H-thiopyran-4-one] | did not inhibit isopeptidase activity | did not | did not cause appreciable cellular accumulation of ubiquitin conjugates | significantly less than unity | did not cause significant cell death | > 60 | > 60 | – | did not cause significant cell death | > 60 | > 60 | – | – | – | – | –
CCCCC/C=C\C[C@@]1(O)C=C(Cl)C(=O)[C@@H]1[C@@H](OC(C)=O)[C@H](OC(C)=O)[C@H](CCCC(=O)OC)OC(C)=O [PNG 2] | – | – | – | – | – | – | – | – | – | – | – | 0.0398 | 0.0398 | 0.0468 | 0.0398 | –
C[C@@H]1C[C@@H]([C@H](O)CC2CC(=O)NC(=O)C2)C(=O)[C@@H](C)C1 [cycloheximide] | – | – | – | – | – | – | – | – | – | – | – | – | – | – | – | 1:1 ratio of Ub-PEST to free Ub
